Test system: Mfn2 null MEFs
Experiment: Mitochondrial elongation (aspect ratio) fusogenicity assay
Format: cell-based, mouse
Details: for Aspect ratio (MEAN ± SEM): Mfn2 null MEFs, overnight, treatment with 1 μM compound (footnote); for Fusogenicity Rank: rank order of aspect ratio among 44 soluble library compounds

| SMILES | Aspect ratio (MEAN ± SEM) | Fusogenicity Rank |
| --- | --- | --- |
| COc1ccc(SC(C)C(=O)Nc2cc[nH]n2)cc1 (stereo not drawn) [drawing 201, 2-[(4-methoxyphenyl)sulfanyl]-N-(1H-pyrazol-3-yl)propanamide] | 3.8 ± 0.4 | 22 |
| O=C(CSCc1ccc(F)cc1)N1CCc2c([nH]c3ccccc23)C1c1ccc(Cl)cc1 (stereo not drawn) [drawing 202, 1-[1-(4-chlorophenyl)-1H,2H,3H,4H,9H-pyrido[3,4-b]indol-2-yl]-2-{[(4-fluorophenyl)methyl]sulfanyl}ethan-1-one] | 4.7 ± 0.9 | 11 |
| CCOC(=O)c1sc(NC(=O)C(CC)Sc2nnc3c(n2)[nH]c2ccccc23)nc1C (stereo not drawn) [drawing 203, ethyl 4-methyl-2-(2-{5H-[1,2,4]triazino[5,6-b]indol-3-ylsulfanyl}butanamido)-1,3-thiazole-5-carboxylate] | 4.5 ± 0.5 | 13 |
| CC(C)C1=CC2C(=O)NC(CSCC(=O)NCc3ccccn3)=NC2S1 (stereo not drawn) [drawing 204, 2-({[4-oxo-6-(propan-2-yl)-3H,4H,4aH,7aH-thieno[2,3-d]pyrimidin-2-yl]methyl}sulfanyl)-N-[(pyridin-2-yl)methyl]acetamide] | 3.8 ± 0.6 | 21 |
| O=C(CSCCc1ccccn1)Nc1ccc(Cl)c(Cl)c1 [drawing 205, N-(3,4-dichlorophenyl)-2-{[2-(pyridin-2-yl)ethyl]sulfanyl}acetamide] | 2.8 ± 0.1 | 41 |
| Cc1nc[nH]c1CSCCn1cnc2cn(C)nc2c1=O [drawing 206, 2-methyl-6-(2-{[(4-methyl-1H-imidazol-5-yl)methyl]sulfanyl}ethyl)-2H,6H,7H-pyrazolo[4,3-d]pyrimidin-7-one] | 2.8 ± 0.2 | 42 |
| Cc1ccc(-c2noc(CSCCCC(=O)Nc3c(C)cccc3C)n2)cc1F [drawing 209, N-(2,6-dimethylphenyl)-4-({[3-(3-fluoro-4-methylphenyl)-1,2,4-oxadiazol-5-yl]methyl}sulfanyl)butanamide] | 3.9 ± 0.5 | 20 |
| COc1ccc2c(c1)C1(SCCN1C(=O)c1ccccc1C)C(=O)N2Cc1cccc(C(F)(F)F)c1 (stereo not drawn) [drawing 210, 5-methoxy-3′-(2-methylbenzoyl)-1-{[3-(trifluoromethyl)phenyl]methyl}-1,2-dihydrospiro[indole-3,2′-[1,3]thiazolidine]-2-one] | 3.5 ± 0.6 | 26 |
| Cc1cccc(C)c1NC(=O)CCCSCc1ncc(C(C)C)o1 [drawing 211, N-(2,6-dimethylphenyl)-4-({[5-(propan-2-yl)-1,3-oxazol-2-yl]methyl}sulfanyl)butanamide] | 3.5 ± 0.1 | 25 |
| Cc1ccc2c(c1)SC(C(=O)NCc1ccc(N3CCCN(C)CC3)nc1)C2 (stereo not drawn) [drawing 212, 6-methyl-N-{[6-(4-methyl-1,4-diazepan-1-yl)pyridin-3-yl]methyl}-2,3-dihydro-1-benzothiophene-2-carboxamide] | 4.0 ± 0.3 | 18 |
| O=C(NCCSCc1ccc(Br)s1)C1CCCN(C(=O)c2cccs2)C1 (stereo not drawn) [drawing 213, N-(2-{[(5-bromothiophen-2-yl)methyl]sulfanyl}ethyl)-1-(thiophene-2-carbonyl)piperidine-3-carboxamide] | 5.1 ± 0.2 | 9 |
| Cc1ccc(-n2nnnc2SC(C)c2nc(-c3nnc[nH]3)no2)cc1 (stereo not drawn) [drawing 215, 1-(4-methylphenyl)-5-({1-[3-(4H-1,2,4-triazol-3-yl)-1,2,4-oxadiazol-5-yl]ethyl}sulfanyl)-1H-1,2,3,4-tetrazole] | 3.4 ± 0.3 | 27 |
| Cc1nnc(SCCCNC(=O)c2n[nH]c3c2CN(C)CC3)s1 [drawing 216, 5-methyl-N-{3-[(5-methyl-1,3,4-thiadiazol-2-yl)sulfanyl]propyl}-1H,4H,5H,6H,7H-pyrazolo[4,3-c]pyridine-3-carboxamide] | 3.1 ± 0.3 | 34 |
| O=C(NCCSCc1ccccc1)C1CCCCO1 (stereo not drawn) [drawing 218, N-[2-(benzylsulfanyl)ethyl]oxane-2-carboxamide] | 3.3 ± 0.4 | 30 |
| Cc1nc[nH]c1CSCCNC(=O)C1CCN(C(=O)C2CCC2)CC1 [drawing 220, 1-cyclobutanecarbonyl-N-(2-{[(4-methyl-1H-imidazol-5-yl)methyl]sulfanyl}ethyl)piperidine-4-carboxamide] | 2.9 ± 0.5 | 40 |
| O=C(NCCSCc1cccc(Cl)c1)C1CCCCn2nnnc21 (stereo not drawn) [drawing 222, N-(2-{[(3-chlorophenyl)methyl]sulfanyl}ethyl)-5H,6H,7H,8H,9H-[1,2,3,4]tetrazolo[1,5-a]azepine-9-carboxamide] | 2.9 ± 0.2 | 38 |
| CC(Sc1nnc(N2CCOCC2)n1Cc1ccccc1)C(=O)Nc1ccc2[nH]c(=O)[nH]c2c1 (stereo not drawn) [drawing 223, 2-{[4-benzyl-5-(morpholin-4-yl)-4H-1,2,4-triazol-3-yl]sulfanyl}-N-(2-oxo-2,3-dihydro-1H-1,3-benzodiazol-5-yl)propanamide] | 5.2 ± 0.2 | 8 |

| SMILES | Aspect ratio (MEAN ± SEM) | Fusogenicity Rank |
| --- | --- | --- |
| CC1CCCCC1NC(=O)NCCSCc1ccccc1 (stereo not drawn) [drawing 224, 1-[2-(benzylsulfanyl)ethyl]-3-(2-methylcyclohexyl)urea] | 6.8 ± 0.6 | 4 |
| S=C(NCCSCc1ccco1)NC1CC2CCC1C2 (stereo not drawn) [drawing 225, 1-{bicyclo[2.2.1]heptan-2-yl}-3-(2-{[(furan-2-yl)methyl]sulfanyl}ethyl)thiourea] | 3.7 ± 0.9 | 23 |
| CC(Sc1nnc(N2CCOCC2)n1Cc1ccccc1)C(=O)Nc1ccc2c(c1)OCCO2 (stereo not drawn) [drawing 226, 2-{[4-benzyl-5-(morpholin-4-yl)-4H-1,2,4-triazol-3-yl]sulfanyl}-N-(2,3-dihydro-1,4-benzodioxin-6-yl)propanamide] | 6.0 ± 0.1 | 6 |
| CC(Sc1nc(CN2CCOCC2)nc2ccccc12)C(=O)Nc1cccc(C(F)(F)F)c1 (stereo not drawn) [drawing 227, 2-({2-[(morpholin-4-yl)methyl]quinazolin-4-yl}sulfanyl)-N-[3-(trifluoromethyl)phenyl]propanamide] | 5.6 ± 0.6 | 7 |
| Cc1ccc(-n2c(SC(C)C(=O)Nc3ccnn3C(C)C)nnc2N2CCOCC2)cc1 (stereo not drawn) [drawing 229, 2-{[4-(4-methylphenyl)-5-(morpholin-4-yl)-4H-1,2,4-triazol-3-yl]sulfanyl}-N-[1-(propan-2-yl)-1H-pyrazol-5-yl]propanamide] | 4.1 ± 0.9 | 15 |
| CCCc1noc(C(C)Sc2nc3cc(C)ccc3[nH]2)n1 (stereo not drawn) [drawing 231, 5-methyl-2-{[1-(3-propyl-1,2,4-oxadiazol-5-yl)ethyl]sulfanyl}-1H-1,3-benzodiazole] | 4.0 ± 1.0 | 17 |
| CCC(C)C1N=C2c3ccccc3N=C(SC(C)C(=O)Nc3cc(OC)cc(OC)c3)N2C1=O (stereo not drawn) [drawing 234, 2-{[2-(butan-2-yl)-3-oxo-2H,3H-imidazo[1,2-c]quinazolin-5-yl]sulfanyl}-N-(3,5-dimethoxyphenyl)propanamide] | 3.2 ± 0.3 | 32 |
| CCC(C)NC(=O)c1ccccc1NC(=O)C(C)Sc1ccc(C)cc1 (stereo not drawn) [drawing 236, N-(butan-2-yl)-2-{2-[(4-methylphenyl)sulfanyl]propanamido}benzamide] | 3.3 ± 0.4 | 29 |
| c1ccc(CSCCc2nc(C3CCOC3)no2)cc1 (stereo not drawn) [drawing 238, 5-[2-(benzylsulfanyl)ethyl]-3-(oxolan-3-yl)-1,2,4-oxadiazole] | 3.4 ± 0.6 | 28 |
| CC(Sc1ccc(Br)cc1)C(=O)Nc1ccc2c(c1)OCCO2 (stereo not drawn) [drawing 239, 2-[(4-bromophenyl)sulfanyl]-N-(2,3-dihydro-1,4-benzodioxin-6-yl)propanamide] | 3.2 ± 0.5 | 33 |
| Cc1ccc(C(=O)C(C)Sc2nnc3c(=O)n(-c4ccc(C)c(C)c4)ccn23)cc1C (stereo not drawn) [drawing 240, 7-(3,4-dimethylphenyl)-3-{[1-(3,4-dimethylphenyl)-1-oxopropan-2-yl]sulfanyl}-7H,8H-[1,2,4]triazolo[4,3-a]pyrazin-8-one] | 3.9 ± 0.8 | 19 |
| O=C(NCCSCc1ccsc1)C1CC2CCCC(C1)C2=O (stereo not drawn) [drawing 241, 9-oxo-N-(2-{[(thiophen-3-yl)methyl]sulfanyl}ethyl)bicyclo[3.3.1]nonane-3-carboxamide] | 4.4 ± 0.6 | 14 |
| CC(Sc1nnc(N2CCOCC2)n1Cc1ccccc1)C(=O)Nc1ccc2c(c1)OCO2 (stereo not drawn) [drawing 242, N-(2H-1,3-benzodioxol-5-yl)-2-{[4-benzyl-5-(morpholin-4-yl)-4H-1,2,4-triazol-3-yl]sulfanyl}propanamide] | 2.5 ± 0.6 | 43 |
| Cc1ccc(N2C[C@@H]3CC[C@H](C2)N(Cc2ccccn2)C3=O)nn1 [drawing 245, (1S,5R)-3-(6-methylpyridazin-3-yl)-6-[(pyridin-2-yl)methyl]-3,6-diazabicyclo[3.2.2]nonan-7-one] | 3.0 ± 0.4 | 36 |
| Cc1ccc(SC2CCN(Cc3cc4n(n3)CCNC4)CC2)cc1 [drawing 246, 4-[(4-methylphenyl)sulfanyl]-1-({4H,5H,6H,7H-pyrazolo[1,5-a]pyrazin-2-yl}methyl)piperidine] | 2.9 ± 0.2 | 39 |
| CC(/N=N/C(=N)SC1CC(=O)N(c2cccc(C(=O)O)c2)C1=O)c1ccccc1 (stereo not drawn) [drawing 247, 3-(2,5-dioxo-3-{[(E)-N-[(1-phenylethyl)imino]carbamimidoyl]sulfanyl}pyrrolidin-1-yl)benzoic acid] | 3.3 ± 0.0 | 31 |
